Data on eight compounds can be found in ChEMBL document CHEMBL3608278 (J Med Chem, 2015).

Assay [1] deals with T1, Potassium voltage-gated channel subfamily A member 3 (Homo sapiens, UniProt P22001). The arrangement: species or system Blood.
The target of assay [2] is T1, Potassium voltage-gated channel subfamily A member 3. The format is cell-based, CHO-K1.
Assay [3] has the same target. Nature of the assay: cell-based. The arrangement: species or system Blood.

Bridge positions count the residues as written; N and C are the ends. Peptide text beside a SMILES is read from it. A value given as a limit tells only on which side of the number the result lay.

In general, IC50 refers to the concentration that gives 50% inhibition.

T1 sequence (P22001 whole entry): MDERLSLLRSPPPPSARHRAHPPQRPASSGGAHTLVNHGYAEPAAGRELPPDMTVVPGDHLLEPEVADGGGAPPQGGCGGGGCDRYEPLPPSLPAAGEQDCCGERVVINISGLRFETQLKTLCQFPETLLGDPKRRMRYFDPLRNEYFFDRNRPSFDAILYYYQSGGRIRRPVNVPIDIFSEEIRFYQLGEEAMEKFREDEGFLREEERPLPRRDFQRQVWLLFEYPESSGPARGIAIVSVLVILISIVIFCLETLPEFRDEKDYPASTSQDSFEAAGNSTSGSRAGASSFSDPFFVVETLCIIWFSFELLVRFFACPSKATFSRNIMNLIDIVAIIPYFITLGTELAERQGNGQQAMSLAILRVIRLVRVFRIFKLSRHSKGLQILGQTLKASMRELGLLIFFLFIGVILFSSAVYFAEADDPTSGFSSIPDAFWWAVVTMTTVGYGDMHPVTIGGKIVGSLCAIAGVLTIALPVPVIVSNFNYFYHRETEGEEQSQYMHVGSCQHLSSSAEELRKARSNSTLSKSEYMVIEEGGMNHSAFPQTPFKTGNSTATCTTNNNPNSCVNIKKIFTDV

As for `CC[C@H](C)[C@@H]1NC(=O)[C@@H](NC(=O)[C@H](CO)NC(=O)[C@@H](N)CCCNC(=N)N)CSSC[C@@H](C(=O)O)NC(=O)[C@H]([C@@H](C)O)NC(=O)CNC(=O)[C@@H]2CSSC[C@@H]3NC(=O)[C@H](CCC(N)=O)NC(=O)[C@H](Cc4ccccc4)NC(=O)[C@H](C)NC(=O)[C@H]([C@@H](C)O)NC(=O)[C@H](CSSC[C@H](NC(=O)[C@H](Cc4ccccc4)NC(=O)[C@H](CO)NC(=O)[C@H](CC(C)C)NC(=O)[C@H](CCCNC(=N)N)NC(=O)[C@H](Cc4ccc(O)cc4)NC(=O)[C@H](CCCCN)NC(=O)[C@H](CCSC)NC(=O)[C@H](CO)NC(=O)[C@H](Cc4cnc[nH]4)NC(=O)[C@H](CCCCN)NC3=O)C(=O)N[C@@H](CCCNC(=N)N)C(=O)N[C@@H](CCCCN)C(=O)N[C@@H]([C@@H](C)O)C(=O)N2)NC(=O)[C@H](CCCNC(=N)N)NC(=O)[C@H](CO)NC(=O)[C@H](CCCCN)NC(=O)[C@@H]2CCCN2C(=O)[C@H]([C@@H](C)CC)NC(=O)[C@H]([C@@H](C)O)NC(=O)[C@H](CCCCN)NC1=O`, the values for the IC50 in assay [1], in assay [2] and in assay [3] were over 100 nM, over 3.33 nM and over 100 nM, respectively.
Take `CC[C@H](C)[C@@H]1NC(=O)[C@@H](NC(=O)[C@H](CO)NC(=O)[C@@H](N)CCCNC(=N)N)CSSC[C@@H](C(=O)O)NC(=O)[C@H]([C@@H](C)O)NC(=O)CNC(=O)[C@@H]2CSSC[C@@H]3NC(=O)[C@H](CCC(N)=O)NC(=O)[C@H](Cc4ccccc4)NC(=O)[C@H](C)NC(=O)[C@H]([C@@H](C)O)NC(=O)[C@H](CSSC[C@H](NC(=O)[C@H](Cc4ccccc4)NC(=O)[C@H](CO)NC(=O)[C@H](CC(C)C)NC(=O)[C@H](CCCNC(=N)N)NC(=O)[C@H](Cc4ccc(O)cc4)NC(=O)[C@H](CCCCN)NC(=O)[C@H](CCSC)NC(=O)[C@H](CO)NC(=O)[C@H](Cc4cnc[nH]4)NC(=O)[C@H](CCCCN)NC3=O)C(=O)N[C@@H](CCCNC(=N)N)C(=O)N[C@@H](CCCCN)C(=O)N[C@@H](CCC(=O)O)C(=O)N2)NC(=O)[C@H](CCCNC(=N)N)NC(=O)[C@H](CO)NC(=O)[C@H](CCCCN)NC(=O)[C@@H]2CCCN2C(=O)[C@H]([C@@H](C)CC)NC(=O)[C@H]([C@@H](C)O)NC(=O)[C@H](CC(=O)O)NC1=O`: the results for the half-maximal inhibitory concentration (IC50) in assay [1], in assay [2] and in assay [3] were 0.309 nM, 0.234 nM and 0.242 nM, respectively.
As for `CC[C@H](C)[C@@H]1NC(=O)[C@@H](NC(=O)[C@H](CO)NC(=O)[C@@H](N)CCCNC(=N)N)CSSC[C@@H](C(=O)O)NC(=O)[C@H]([C@@H](C)O)NC(=O)CNC(=O)[C@@H]2CSSC[C@@H]3NC(=O)[C@H](CCC(N)=O)NC(=O)[C@H](CCCCN)NC(=O)[C@H](C)NC(=O)[C@H]([C@@H](C)O)NC(=O)[C@H](CSSC[C@H](NC(=O)[C@H](Cc4ccccc4)NC(=O)[C@H](CO)NC(=O)[C@H](CC(C)C)NC(=O)[C@H](CCCNC(=N)N)NC(=O)[C@H](Cc4ccc(O)cc4)NC(=O)[C@H](CCCCN)NC(=O)[C@H](CCSC)NC(=O)[C@H](CO)NC(=O)[C@H](C)NC(=O)[C@H](CCCCN)NC3=O)C(=O)N[C@@H](CCCNC(=N)N)C(=O)N[C@@H](CCCCN)C(=O)N[C@@H]([C@@H](C)O)C(=O)N2)NC(=O)[C@H](CCCNC(=N)N)NC(=O)[C@H](CO)NC(=O)[C@H](CCCCN)NC(=O)[C@@H]2CCCN2C(=O)[C@H]([C@@H](C)CC)NC(=O)[C@H]([C@@H](C)O)NC(=O)[C@H](CC(=O)O)NC1=O` (H-RSCIDTIPKSRCTAKQCKASMKYRLSFCRKTCGTC-OH; disulfide 3-35, 12-28, 17-32), the IC50 in assay [1] was 0.991 nM; in assay [2], 0.294 nM; in assay [3] it was 0.465 nM.
The corresponding values for `CC[C@H](C)[C@@H]1NC(=O)[C@@H](NC(=O)[C@H](CO)NC(=O)[C@@H](N)CCCCN)CSSC[C@@H](C(=O)O)NC(=O)[C@H]([C@@H](C)O)NC(=O)CNC(=O)[C@@H]2CSSC[C@@H]3NC(=O)[C@H](CCC(N)=O)NC(=O)[C@H](Cc4ccccc4)NC(=O)[C@H](C)NC(=O)[C@H]([C@@H](C)O)NC(=O)[C@H](CSSC[C@H](NC(=O)[C@H](Cc4ccccc4)NC(=O)[C@H](CO)NC(=O)[C@H](CC(C)C)NC(=O)[C@H](CCCNC(=N)N)NC(=O)[C@H](Cc4ccc(O)cc4)NC(=O)[C@H](CCCCN)NC(=O)[C@H](CCSC)NC(=O)[C@H](CO)NC(=O)[C@H](Cc4cnc[nH]4)NC(=O)[C@H](CCCCN)NC3=O)C(=O)N[C@@H](CCCNC(=N)N)C(=O)N[C@@H](CCCCN)C(=O)N[C@@H]([C@@H](C)O)C(=O)N2)NC(=O)[C@H](CCCNC(=N)N)NC(=O)[C@H](CO)NC(=O)[C@H](CCCCN)NC(=O)[C@@H]2CCCN2C(=O)[C@H]([C@@H](C)CC)NC(=O)[C@H]([C@@H](C)O)NC(=O)[C@H](CC(=O)O)NC1=O` are 0.073 nM, 0.154 nM and 0.036 nM.
As to `CC[C@H](C)[C@@H]1NC(=O)[C@@H](NC(=O)[C@H](CO)NC(=O)[C@@H](N)CCCNC(=N)N)CSSC[C@@H](C(=O)O)NC(=O)[C@H]([C@@H](C)O)NC(=O)CNC(=O)[C@@H]2CSSC[C@@H]3NC(=O)[C@H](CCC(N)=O)NC(=O)[C@H](Cc4ccccc4)NC(=O)[C@H](C)NC(=O)[C@H]([C@@H](C)O)NC(=O)[C@H](CSSC[C@H](NC(=O)[C@H](C)NC(=O)[C@H](CO)NC(=O)[C@H](CC(C)C)NC(=O)[C@H](CCCNC(=N)N)NC(=O)[C@H](Cc4ccc(O)cc4)NC(=O)[C@H](CCCCN)NC(=O)[C@H](CCSC)NC(=O)[C@H](CO)NC(=O)[C@H](Cc4cnc[nH]4)NC(=O)[C@H](CCCCN)NC3=O)C(=O)N[C@@H](CCCNC(=N)N)C(=O)N[C@@H](CCCCN)C(=O)N[C@@H]([C@@H](C)O)C(=O)N2)NC(=O)[C@H](CCCNC(=N)N)NC(=O)[C@H](CO)NC(=O)[C@H](CCCCN)NC(=O)[C@@H]2CCCN2C(=O)[C@H]([C@@H](C)CC)NC(=O)[C@H]([C@@H](C)O)NC(=O)[C@H](CC(=O)O)NC1=O`, the IC50 in assay [1] worked out at 8.01 nM; in assay [2], 0.275 nM; in assay [3] it was 1.5 nM.
Regarding `CC[C@H](C)[C@@H]1NC(=O)[C@@H](NC(=O)[C@H](CO)NC(=O)[C@@H](N)CCCNC(=N)N)CSSC[C@@H](C(=O)O)NC(=O)[C@H]([C@@H](C)O)NC(=O)CNC(=O)[C@@H]2CSSC[C@@H]3NC(=O)[C@H](CCC(N)=O)NC(=O)[C@H](Cc4ccccc4)NC(=O)[C@H](C)NC(=O)[C@H]([C@@H](C)O)NC(=O)[C@H](CSSC[C@H](NC(=O)[C@H](Cc4ccccc4)NC(=O)[C@H](CO)NC(=O)[C@H](CC(C)C)NC(=O)[C@H](CCCNC(=N)N)NC(=O)[C@H](Cc4ccc(O)cc4)NC(=O)[C@H](CCCCN)NC(=O)[C@H](CCSC)NC(=O)[C@H](CO)NC(=O)[C@H](Cc4cnc[nH]4)NC(=O)[C@H](CCCCN)NC3=O)C(=O)N[C@@H](CCCNC(=N)N)C(=O)N[C@@H](CCCCN)C(=O)N[C@@H]([C@@H](C)O)C(=O)N2)NC(=O)[C@H](CCCNC(=N)N)NC(=O)[C@H](CO)NC(=O)[C@H](CCCCN)NC(=O)[C@H](C)NC(=O)[C@H]([C@@H](C)CC)NC(=O)[C@H]([C@@H](C)O)NC(=O)[C@H](CC(=O)O)NC1=O`, the figures for the 50% inhibitory concentration (IC50) in assay [1], in assay [2] and in assay [3] were 0.066 nM, 0.079 nM and 0.034 nM, respectively.
The corresponding values for `CC[C@H](C)[C@@H]1NC(=O)[C@@H](NC(=O)[C@H](CO)NC(=O)[C@@H](N)CCCNC(=N)N)CSSC[C@@H](C(=O)O)NC(=O)[C@H]([C@@H](C)O)NC(=O)CNC(=O)[C@@H]2CSSC[C@@H]3NC(=O)[C@H](CCC(N)=O)NC(=O)[C@H](Cc4ccccc4)NC(=O)[C@H](C)NC(=O)[C@H]([C@@H](C)O)NC(=O)[C@H](CSSC[C@H](NC(=O)[C@H](Cc4ccccc4)NC(=O)[C@H](CO)NC(=O)[C@H](CC(C)C)NC(=O)[C@H](CCCNC(=N)N)NC(=O)[C@H](Cc4ccc(O)cc4)NC(=O)[C@H](CCCCN)NC(=O)[C@H](CCSC)NC(=O)[C@H](CO)NC(=O)[C@H](C)NC(=O)[C@H](CCCCN)NC3=O)C(=O)N[C@@H](CCCNC(=N)N)C(=O)N[C@@H](CCCCN)C(=O)N[C@@H]([C@@H](C)O)C(=O)N2)NC(=O)[C@H](CCCNC(=N)N)NC(=O)[C@H](CO)NC(=O)[C@H](CCCCN)NC(=O)[C@@H]2CCCN2C(=O)[C@H]([C@@H](C)CC)NC(=O)[C@H]([C@@H](C)O)NC(=O)[C@H](CC(=O)O)NC1=O` are 0.556 nM, 0.24 nM and 0.301 nM.
With `CC[C@H](C)[C@@H]1NC(=O)[C@@H](NC(=O)[C@H](CO)NC(=O)[C@@H](N)CCCNC(=N)N)CSSC[C@@H](C(=O)O)NC(=O)[C@H]([C@@H](C)O)NC(=O)CNC(=O)[C@@H]2CSSC[C@@H]3NC(=O)[C@H](CCC(N)=O)NC(=O)[C@H](Cc4ccccc4)NC(=O)[C@H](C)NC(=O)[C@H]([C@@H](C)O)NC(=O)[C@H](CSSC[C@H](NC(=O)[C@H](Cc4ccccc4)NC(=O)[C@H](CO)NC(=O)[C@H](CC(C)C)NC(=O)[C@H](CCCNC(=N)N)NC(=O)[C@H](Cc4ccc(O)cc4)NC(=O)[C@H](CCCCN)NC(=O)[C@H](CCSC)NC(=O)[C@H](CO)NC(=O)[C@H](Cc4c[nH]cn4)NC(=O)[C@H](CCCCN)NC3=O)C(=O)N[C@@H](CCCNC(=N)N)C(=O)N[C@@H](CCCCN)C(=O)N[C@@H]([C@@H](C)O)C(=O)N2)NC(=O)[C@H](CCCNC(=N)N)NC(=O)[C@H](CO)NC(=O)[C@H](CCCCN)NC(=O)[C@@H]2CCCN2C(=O)[C@H]([C@@H](C)CC)NC(=O)[C@H](Cc2cccc3ccccc23)NC(=O)[C@H](CC(=O)O)NC1=O`, the half-inhibitory concentration (IC50) turned out to be 0.962 nM in assay [1], 0.153 nM in assay [2] and 0.86 nM in assay [3].
